Results reported in the supplement of paper PMC10307832.

Experiments:
Assay in all cases: relative viability (nuclei count vs DMSO), 5 days (fraction); higher = more cells survive
[1] = compound: Nc1ncn([C@H]2C[C@H](O)[C@@H](CO)O2)c(=O)n1 [Decitabine] + O=C(CCCCCCC(=O)Nc1ccccc1)NO [Vorinostat] (partner 1 µM)
How it was run: (§1)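 Lung cancer cell lines were pin-tool dosed in 1536-well plates on the day after seeding, with either a lone drug or a fixed anchor-drug dose plus five library-drug doses (not always all listed) in √10 steps. Nuclei were counted on 4× images after 5 days. Relative viability is the ratio of treated-well to vehicle-well nuclei counts, with each value a median of duplicate plates.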

[2] = compound: Nc1ncn([C@H]2C[C@H](O)[C@@H](CO)O2)c(=O)n1 [Decitabine] + NC(=O)Nc1cc(-c2cccc(F)c2)sc1C(=O)N[C@H]1CCCNC1 [AZD7762] (partner 0.2 µM)
How it was run: as §1

[3] = compound: Nc1ncn([C@H]2C[C@H](O)[C@@H](CO)O2)c(=O)n1 [Decitabine] + CC(C)C[C@H](NC(=O)[C@H](Cc1ccccc1)NC(=O)c1cnccn1)B(O)O [Bortezomib] (partner 0.002 µM)
How it was run: as §1

[4] = compound: Nc1ncn([C@H]2C[C@H](O)[C@@H](CO)O2)c(=O)n1 [Decitabine] + CCNC(=O)c1noc(-c2cc(C(C)C)c(O)cc2O)c1-c1ccc(CN2CCOCC2)cc1 [Luminespib] (partner 0.01 µM)
How it was run: as §1

Row | Cell Line | relative viability ([1]; first compound 0.04 µM) | relative viability ([1]; first compound 0.1265 µM) | relative viability ([1]; first compound 0.4 µM) | relative viability ([1]; first compound 1.265 µM) | relative viability ([1]; first compound 4 µM) | relative viability ([2]; first compound 0.04 µM) | relative viability ([2]; first compound 0.1265 µM) | relative viability ([2]; first compound 0.4 µM) | relative viability ([2]; first compound 1.265 µM) | relative viability ([2]; first compound 4 µM) | relative viability ([3]; first compound 0.04 µM) | relative viability ([3]; first compound 0.1265 µM) | relative viability ([3]; first compound 0.4 µM) | relative viability ([3]; first compound 1.265 µM) | relative viability ([3]; first compound 4 µM) | relative viability ([4]; first compound 0.04 µM) | relative viability ([4]; first compound 0.1265 µM) | relative viability ([4]; first compound 0.4 µM) | relative viability ([4]; first compound 1.265 µM) | relative viability ([4]; first compound 4 µM)
1 | HCC-78 | 0.54 | 0.476 | 0.477 | 0.448 | 0.346 | 0.549 | 0.605 | 0.565 | 0.474 | 0.466 | 0.52 | 0.517 | 0.435 | 0.385 | 0.328 | – | – | – | – | –
2 | EBC-1 | – | – | – | – | – | – | – | – | – | – | 0.395 | 0.406 | 0.29 | 0.268 | 0.257 | – | – | – | – | –
3 | NCI-H2405 | 0.765 | 0.878 | 0.894 | 0.561 | 0.395 | 0.814 | 0.902 | 0.977 | 0.501 | 0.431 | 0.88 | 0.905 | 0.828 | 0.66 | 0.538 | 0.798 | 0.654 | 0.59 | 0.431 | 0.445
4 | NCI-H3122 | 0.92 | 0.866 | 0.574 | 0.53 | 0.487 | 0.927 | 0.823 | 0.529 | 0.466 | 0.5 | 0.973 | 0.987 | 0.968 | 0.782 | 0.725 | 0.0814 | 0.0807 | 0.0785 | 0.0889 | 0.0802
5 | NCI-H1563 | – | – | – | – | – | – | – | – | – | – | 0.801 | 1.02 | 1.16 | 0.987 | 0.908 | 0.564 | 0.508 | 0.428 | 0.545 | 0.495
6 | HCC-44 | 1.06 | 0.982 | 0.839 | 0.904 | 0.785 | 1.08 | 0.974 | 0.932 | 1.06 | 1.06 | 0.821 | 0.898 | 0.536 | 0.602 | 0.548 | – | 0.848 | 0.52 | 0.618 | 0.471
7 | PC-3 [JPC-3] | – | 0.554 | 0.507 | 0.454 | 0.567 | – | 0.793 | 0.6 | 0.453 | 0.602 | – | 0.6 | 0.458 | 0.462 | 0.389 | 0.43 | 0.708 | 0.454 | 0.408 | 0.488
8 | NCI-H1993 | 0.628 | 0.737 | 0.614 | 0.399 | 0.487 | 0.654 | 0.796 | 0.644 | 0.641 | 0.703 | 0.925 | 0.898 | 0.839 | 0.777 | 0.672 | 0.725 | 0.826 | 0.787 | 0.696 | 0.674
9 | SW 900 | 0.333 | 0.42 | 0.33 | 0.193 | 0.286 | 0.502 | 0.646 | 0.39 | 0.237 | 0.298 | – | – | – | – | – | 0.212 | 0.164 | 0.169 | 0.179 | 0.197
10 | IA-LM | 0.853 | 0.403 | 0.393 | 0.236 | 0.164 | – | – | – | – | – | 0.44 | 0.54 | 0.257 | 0.172 | 0.185 | – | – | – | – | –
